Test results taken from ChEMBL document CHEMBL5385848, “Discovery of novel hydroxyamidine based indoleamine 2,3-dioxygenase 1 (IDO1) and thioredoxin reductase 1 (TrxR1) dual inhibitors” (Eur J Med Chem, 2023).
Active and inactive are the calls of the source. The calls are words filed in the database; no cut-off is given here.

Assays:
[1] = test system: HCT-116; assay: Induction of cell cycle arrest in human HCT-116 cells assessed as G1/S phase arrest at 2.5 to 10 uM incubated for 24 hrs by PI staining based flow cytometry analysis; format: functional; settings: dose 2.5-10 µM
[2] = test system: HCT-116; assay: Induction of apoptosis in human HCT-116 cells assessed as caspase-3 activation incubated for 24 hrs; format: functional, cell-based; settings: dose 2.5-10 µM
[3] = test system: HCT-116; assay: Induction of apoptosis in human HCT-116 cells assessed as apoptotic rate at 10 uM pretreated with NAC incubated for 24 hrs by Annexin-V/PI staining based flow cytometry analysis (reference value: 9.8 +/- 1.59%); format: functional
[4] = test system: HeLa; assay: Induction of ROS generation in human HeLa cells at 10 uM incubated for 4 hrs by DCFH-DA staining based flow cytometry analysis; format: functional, cell-based
[5] = test system: HCT-116; assay: Induction of ROS generation in human HCT-116 cells at 10 uM incubated for 4 hrs by DCFH-DA staining based flow cytometry analysis; format: functional, cell-based
[6] = test system: IDO1; assay: Selectivity ratio of IC50 for cytotoxicity against human HCT-116 cells to EC50 for inhibition of IDO1 in human HCT-116 cells; format: cell-based; settings: read-out: Ratio IC50/EC50
[7] = Cytotoxicity against human HeLa cells incubated for 48 hrs by CCK-8 assay; format: toxicity, cell-based
[8] = Cytotoxicity against mouse CT26 cells incubated for 48 hrs by CCK-8 assay; format: toxicity, cell-based
[9] = target: T1, Thioredoxin reductase 1, cytoplasmic (Mus musculus, UniProt Q9JMH6); assay: Inhibition of TrxR1 in mouse CT26 cells incubated for 24 hrs; format: cell-based
T1 sequence (Q9JMH6 whole entry): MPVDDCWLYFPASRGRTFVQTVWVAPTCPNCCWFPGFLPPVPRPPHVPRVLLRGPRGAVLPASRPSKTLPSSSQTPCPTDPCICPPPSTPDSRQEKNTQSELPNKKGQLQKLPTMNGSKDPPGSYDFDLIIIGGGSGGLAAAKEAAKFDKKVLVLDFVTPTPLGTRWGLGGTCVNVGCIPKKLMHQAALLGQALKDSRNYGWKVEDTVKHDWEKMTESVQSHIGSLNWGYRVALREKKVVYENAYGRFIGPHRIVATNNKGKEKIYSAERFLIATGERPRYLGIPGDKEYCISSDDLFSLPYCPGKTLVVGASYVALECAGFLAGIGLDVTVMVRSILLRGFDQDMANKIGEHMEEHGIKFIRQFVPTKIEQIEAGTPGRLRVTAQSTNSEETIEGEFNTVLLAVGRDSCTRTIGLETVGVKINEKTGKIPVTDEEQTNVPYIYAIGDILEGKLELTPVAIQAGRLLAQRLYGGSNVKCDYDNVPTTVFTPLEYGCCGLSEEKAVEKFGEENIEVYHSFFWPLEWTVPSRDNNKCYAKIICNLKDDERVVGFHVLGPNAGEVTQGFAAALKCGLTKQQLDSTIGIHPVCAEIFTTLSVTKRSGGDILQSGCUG

[10] = target: Tryptophan 2,3-dioxygenase (Homo sapiens, UniProt P48775); assay: Inhibition of TDO (unknown origin) using L-Trp as substrate incubated for 75 mins
Chain of Tryptophan 2,3-dioxygenase (P48775 whole entry): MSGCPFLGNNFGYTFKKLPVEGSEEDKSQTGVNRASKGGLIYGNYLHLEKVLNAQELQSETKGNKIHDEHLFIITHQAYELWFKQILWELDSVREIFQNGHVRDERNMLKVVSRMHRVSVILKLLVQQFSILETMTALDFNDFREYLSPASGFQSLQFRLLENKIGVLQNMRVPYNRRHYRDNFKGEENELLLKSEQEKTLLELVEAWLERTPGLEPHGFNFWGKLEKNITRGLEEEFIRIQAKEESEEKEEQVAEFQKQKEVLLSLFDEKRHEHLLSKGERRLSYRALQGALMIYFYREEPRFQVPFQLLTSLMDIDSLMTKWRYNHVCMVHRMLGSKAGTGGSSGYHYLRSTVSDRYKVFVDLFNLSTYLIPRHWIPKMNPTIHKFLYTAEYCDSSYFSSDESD

[11] = test system: HCT-116; assay: Cytotoxicity against human HCT-116 cells incubated for 24 hrs in presence of NAC CCK-8 assay; format: functional, cell-based; settings: HCT-116, 24 h
[12] = test system: HeLa; assay: Cytotoxicity against human HeLa cells incubated for 24 hrs in presence of NAC CCK-8 assay; format: functional, cell-based
[13] = test system: HeLa; assay: Induction of cell cycle arrest in human HeLa cells assessed as G1/S phase arrest at 2.5 to 10 uM pretreated with NAC for 2 hrs followed by compound addition and measured after 12 hrs by PI staining based flow cytometry analysis; format: functional; settings: dose 2.5-10 µM
[14] = test system: HCT-116; assay: Cytotoxicity against TrxR1 knockdown human HCT-116 cells incubated for 24 hrs by CCK-8 assay (reference value: 3.08 +/- 0.55 uM); format: functional, cell-based; settings: HCT-116, 24 h
[15] = target: Indoleamine 2,3-dioxygenase 1 (Mus musculus) (UniProt P28776); assay: In vivo inhibition of IDO1 in C57BL/6 mouse assessed as reduction in plasma Kyn level at 60 mg/kg, po administered once daily by LC-MS/MS analysis; format: functional, organism-based
Chain of Indoleamine 2,3-dioxygenase 1 (Mus musculus) (P28776 whole entry, looked up): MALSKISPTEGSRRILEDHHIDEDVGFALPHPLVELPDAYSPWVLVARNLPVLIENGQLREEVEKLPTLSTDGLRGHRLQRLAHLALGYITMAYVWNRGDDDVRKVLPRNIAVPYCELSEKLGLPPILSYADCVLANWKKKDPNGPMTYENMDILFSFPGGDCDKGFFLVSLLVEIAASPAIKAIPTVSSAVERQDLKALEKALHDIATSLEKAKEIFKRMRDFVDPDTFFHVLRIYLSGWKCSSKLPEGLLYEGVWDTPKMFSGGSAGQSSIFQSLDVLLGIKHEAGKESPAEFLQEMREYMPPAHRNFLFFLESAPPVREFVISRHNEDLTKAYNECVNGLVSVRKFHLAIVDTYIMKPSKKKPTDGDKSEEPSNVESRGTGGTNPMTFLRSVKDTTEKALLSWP

[16] = target: Indoleamine 2,3-dioxygenase 1 (Mus musculus) (UniProt P28776); assay: In vivo inhibition of IDO1 in C57BL/6 mouse assessed as reduction in plasma Kyn/Trp ratio at 60 mg/kg, po administered once daily by LC-MS/MS analysis; format: functional, organism-based
[17] = target: Indoleamine 2,3-dioxygenase 1 (Mus musculus) (UniProt P28776); assay: In vivo inhibition of IDO1 in BALB/c mouse implanted with mouse CT-26 cells assessed as reduction in plasma Kyn level at 60 mg/kg, po administered once daily by LC-MS/MS analysis; format: functional, organism-based
[18] = target: Indoleamine 2,3-dioxygenase 1 (Mus musculus) (UniProt P28776); assay: In vivo inhibition of IDO1 in BALB/c mouse implanted with mouse CT-26 cells assessed as reduction in plasma Kyn/Trp ratio at 60 mg/kg, po administered once daily by LC-MS/MS analysis; format: functional, organism-based
[19] = target: Indoleamine 2,3-dioxygenase 1 (Mus musculus) (UniProt P28776); assay: In vivo inhibition of IDO1 in BALB/c mouse implanted with mouse CT-26 cells assessed as reduction in tumor Kyn/Trp ratio at 60 mg/kg, po administered once daily by LC-MS/MS analysis; format: functional, organism-based
[20] = test system: CT26; assay: Antitumor activity against ig dosed mouse CT26 cells implanted in […] BALB/c mouse assessed as reduction in tumor weight administered daily for 28 days and measured every 4 days; format: functional, organism-based; settings: dose 15-60 mg/kg, time 28.0 day
[21] = test system: CT26; assay: Antitumor activity against mouse CT26 cells implanted in […] BALB/c mouse assessed as increase in CD8 T lymphocytes at 15 to 60 mg/kg, ig administered daily for 28 days and measured every 4 days; format: functional, organism-based; settings: dose 15-60 mg/kg, time 28.0 day
[22] = test system: CT26; assay: Antitumor activity against mouse CT26 cells implanted in athymic nude BALB/c mouse assessed as reduction in CD4+CD25+Foxp3+ lymphocytes at 15 to 60 mg/kg, ig administered daily for 28 days and measured every 4 days by immunofluorescence analysis; format: functional, organism-based; settings: dose 15-60 mg/kg, time 28.0 day
[23] = Toxicity in athymic BALB/c mouse xenografted with human HCT-116 cells assessed as change in heart morphology at 15 to 60 mg/kg, ig administered daily for 28 days and measured every 4 days; format: organism-based; settings: in vivo, po, 672 h, dose 15-60 mg/kg, time 28 day
[24] = Toxicity in athymic BALB/c mouse xenografted with human HCT-116 cells assessed as change in liver morphology at 15 to 60 mg/kg, ig administered daily for 28 days and measured every 4 days; format: organism-based; settings: in vivo, po, 672 h, dose 15-60 mg/kg, time 28 day
[25] = Toxicity in athymic BALB/c mouse xenografted with human HCT-116 cells assessed as change in spleen morphology at 15 to 60 mg/kg, ig administered daily for 28 days and measured every 4 days; format: organism-based; settings: in vivo, po, 672 h, dose 15-60 mg/kg, time 28 day
[26] = Toxicity in athymic BALB/c mouse xenografted with human HCT-116 cells assessed as change in kidney morphology at 15 to 60 mg/kg, ig administered daily for 28 days and measured every 4 days; format: organism-based; settings: in vivo, po, 672 h, dose 15-60 mg/kg, time 28 day
[27] = test system: HCT-116; assay: Antitumor activity against human HCT-116 cells xenografted in athymic nude BALB/c mouse assessed as increase in apoptotic cells at 15 to 60 mg/kg, ig administered daily for 28 days and measured every 4 days by tunel assay; format: functional, organism-based; settings: dose 15-60 mg/kg, time 28.0 day
[28] = test system: Mus musculus; assay: In vivo inhibition of TrxR1 in human HCT-116 cells xenografted in athymic nude BALB/c mouse assessed as reduction in TrxR1 activity at 15 to 60 mg/kg, ig administered daily for 28 days and measured every 4 days; format: functional, organism-based; settings: dose 15-60 mg/kg, time 28.0 day

O=C(Cc1ccc(O)cc1)Nc1nnc(CCCNc2nonc2/C(=N\O)Nc2ccc(F)c(Br)c2)s1
Activity [1]: Active | Activity [2]: Dose-Dependent Effect | Activity [3]: 15.21% | Activity [4]: Active | Activity [5]: Active | selectivity ratio [6]: 101 | IC50 at 48 h [7]: 10.2 µM | IC50 at 48 h [8]: 12.4 µM | EC50 [9]: 25.7 µM | IC50 [10]: 54.2 µM | IC50 [11]: 60.8 µM | IC50 [12]: 74.2 µM | Activity [13]: Active | IC50 [14]: 1.52 µM | Activity [15]: Active | Activity [16]: Active | Activity [17]: Active | Activity [18]: Active | Activity [19]: Active | Activity [20]: Dose-Dependent Effect | Activity [21]: Active | Activity [22]: Active | Activity [23]: Non-Toxic | Activity [24]: Non-Toxic | Activity [25]: Non-Toxic | Activity [26]: Non-Toxic | Activity [27]: Active | Activity [28]: Active
